Assay results published in patent US9567569B2, “Methods of culturing and expanding mesenchymal stem cells” (Gamida Cell Ltd., priority 2012, dated 2017).
“Also recorded” adds a separate entry of the source.

How the values were obtained:
CD34+ cells = details: cited from earlier work
[1] = tested on: Human bone marrow derived mesenchymal cells; assay: FACS measurement of CD45, CD105 and VCAM1/CD106 on cultured mesenchymal stem cells; type: cell-based; details: with vs without SR1 under identical conditions
Protocol: (§1) Isolation—Human bone marrow derived mesenchymal cells were isolated based on their plastic adherence potential in expansion medium containing: High glucose DMEM and 10% Fetal Bovine Serum (FBS, Hyclone, Logan, Utah, USA), 0.05 mg/ml Gentamicin (Sigma) and 2 mM L-glutamine (Biological Industries, Israel). Cells were allowed to adhere for 3-4 days and non-adherent cells were washed out with medium changes. Expansion—Mesenchymal stem cells were isolated using plastic adherence method, as described above and cultured for several passages in a medium which comprises fetal bovine serum in the presence or absence of SR1 for three passages (StemRegenin1, BioVision cat#1967-1). Measurement of CD45, CD105 and VCAM1/CD106: following Trypsin treatment the cells were analyzed for CD45, CD105 or CD106 expression in FACS using anti-human CD45 FITC, CD105 PE or CD106 APC antibodies.

[2] = target: T1, aryl hydrocarbon receptor (AhR) (Homo sapiens, UniProt P35869); details: cited from earlier work
T1 sequence (P35869 11-848): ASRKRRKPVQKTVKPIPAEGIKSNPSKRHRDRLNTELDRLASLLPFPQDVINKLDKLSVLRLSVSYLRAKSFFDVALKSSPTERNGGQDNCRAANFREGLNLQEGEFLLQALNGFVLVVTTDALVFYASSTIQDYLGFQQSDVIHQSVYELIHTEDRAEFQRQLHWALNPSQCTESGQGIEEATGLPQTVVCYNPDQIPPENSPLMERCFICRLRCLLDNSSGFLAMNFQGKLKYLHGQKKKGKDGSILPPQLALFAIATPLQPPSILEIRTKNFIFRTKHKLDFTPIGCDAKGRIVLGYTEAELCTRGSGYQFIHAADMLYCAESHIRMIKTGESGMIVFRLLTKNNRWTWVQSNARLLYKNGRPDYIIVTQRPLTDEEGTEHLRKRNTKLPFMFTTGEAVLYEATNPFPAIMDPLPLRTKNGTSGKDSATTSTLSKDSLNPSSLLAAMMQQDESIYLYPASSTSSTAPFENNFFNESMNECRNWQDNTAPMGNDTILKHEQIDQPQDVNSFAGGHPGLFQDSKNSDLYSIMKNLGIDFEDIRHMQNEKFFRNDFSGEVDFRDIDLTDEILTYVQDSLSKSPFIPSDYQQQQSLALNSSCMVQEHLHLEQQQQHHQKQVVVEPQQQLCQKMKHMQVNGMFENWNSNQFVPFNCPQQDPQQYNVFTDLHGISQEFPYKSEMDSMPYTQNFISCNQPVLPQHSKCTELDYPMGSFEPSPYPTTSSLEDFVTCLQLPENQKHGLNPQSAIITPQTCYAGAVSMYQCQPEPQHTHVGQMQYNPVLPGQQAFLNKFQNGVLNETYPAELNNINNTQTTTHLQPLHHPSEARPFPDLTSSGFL

[3] = tested on: Human bone marrow derived mesenchymal cells; assay: Expansion of mesenchymal stem cells in culture in the presence or absence of SR1 (cell counts, doubling time); type: cell-based
Protocol: as §1, with “Three concentrations 250, 1000 and 2500 nM” for “Measurement”, “SR1 were examined. At about 80% confluence, adherent” for “CD45, CD105 and VCAM1/CD106: following Trypsin treatment the”, “collected following trypsin treatment, counted, characterized and re-seeded at a concentration of 1×10^3 cells/cm^2.” for “analyzed for CD45, CD105 or CD106 expression in FACS using anti-human CD45 FITC, CD105 PE or CD106 APC antibodies.”

CC(C)n1cnc2c(NCCc3ccc(O)cc3)nc(-c3csc4ccccc34)nc21 [SR1, 4-(2-(2-(benzo[b]thiophen-3-yl)-9-isopropyl-9H-purin-6-ylamino)ethyl)phenol]
ex vivo expansion of CD34+ cells (CD34+ cells): promote the ex vivo expansion of CD34+ cells
CD45 and CD105 levels (percentage of CD105+CD45- cells) ([1]; FIG. 4): same CD45 and CD105 levels
VCAM1/CD106 expression (percentage of CD106+ cells) ([1]; FIG. 5): increase the fraction of CD106+ cells; also recorded: express more VCAM1/CD106 adhesion molecule
action on the aryl hydrocarbon receptor [2]: antagonizing
effect on the proliferation of mesenchymal stem cells (cumulative count) ([3]; SR1 250, 1000 and 2500 nM vs control, three passages, FIGS. 1-3): proliferate more rapidly; also recorded: positive effect
most effective concentration for proliferation of mesenchymal stem cells ([3]; of 250, 1000 and 2500 nM examined): 250 nM
doubling time of mesenchymal stem cells ([3]; passage 2, with vs without SR1, FIG. 3): decreased
time for cultures to reach confluence ([3]; with vs without SR1): substantially shorter period of time
